Laboratory results from ChEMBL document CHEMBL3044728, “Synthesis and biological activity of new (E)-alpha-(Methoxyimino)benzeneacetate derivatives containing a substituted pyrazole ring” (2010).

How the values were obtained:
Assay type in all cases: functional
Phytophthora infestans [1] = experiment: Antifungal activity against Phytophthora infestans assessed as inhibition at 25 mg/L relative to control
Pyricularia oryzae [2] = experiment: Antifungal activity against Magnaporthe oryzae assessed as inhibition at 0.92 mg/L relative to control
Pyricularia oryzae [3] = experiment: Antifungal activity against Magnaporthe oryzae assessed as inhibition at 25 mg/L relative to control
Blumeria graminis [4] = experiment: Antifungal activity against Blumeria graminis assessed as inhibition at 1.56 mg/L relative to control
Blumeria graminis [5] = experiment: Antifungal activity against Blumeria graminis assessed as inhibition at 6.25 mg/L relative to control
Blumeria graminis [6] = experiment: Antifungal activity against Blumeria graminis assessed as inhibition at 400 mg/L relative to control
[7] = test system: Pseudoperonospora cubensis; experiment: Antifungal activity against Pseudoperonospora cubensis assessed as inhibition at 25 mg/L relative to control
Phytophthora infestans [8] = experiment: Antifungal activity against Phytophthora infestans assessed as inhibition at 0.92 mg/L relative to control
[9] = test system: Pseudoperonospora cubensis; experiment: Antifungal activity against Pseudoperonospora cubensis assessed as inhibition at 400 mg/L relative to control
Myzus persicae = experiment: Insecticidal activity against Myzus persicae (green peach aphid) at 600 mg/L relative to control
[10] = test system: Pseudoperonospora cubensis; experiment: Antifungal activity against Pseudoperonospora cubensis assessed as inhibition at 6.25 mg/L relative to control

Row | Compound | inhibition at 25 µg/mL (Phytophthora infestans [1]) [%] | inhibition at 0.92 µg/mL (Pyricularia oryzae [2]) [%] | inhibition at 25 µg/mL (Pyricularia oryzae [3]) [%] | inhibition at 1.56 µg/mL (Blumeria graminis [4]) [%] | inhibition at 6.25 µg/mL (Blumeria graminis [5]) [%] | inhibition at 400 µg/mL (Blumeria graminis [6]) [%] | inhibition at 25 µg/mL [7] [%] | inhibition at 0.92 µg/mL (Phytophthora infestans [8]) [%] | inhibition at 400 µg/mL [9] [%] | Activity (Myzus persicae) [%] | inhibition at 6.25 µg/mL [10] [%]
1 | CCOc1ccc(-c2nn(C)c(OCc3ccccc3/C(=N\OC)C(=O)NC)c2C)cc1 | 100 | 100 | 100 | 70 | 100 | 100 | 20 | 50 | 98 |  | 
2 | CNC(=O)/C(=N/OC)c1ccccc1COc1cc(-c2ccc(C(C)(C)C)cc2)nn1C | 100 | 50 | 100 |  |  | 0 | 0 | 50 | 80 |  | 
3 | CNC(=O)/C(=N/OC)c1ccccc1COc1cc(-c2ccccc2Cl)nn1C | 100 |  | 0 | 55 | 90 | 100 | 40 | 0 | 90 |  | 
4 | CO/N=C(/C(=O)OC)c1ccccc1COc1cc(-c2ccccc2)nn1C | 0 |  | 0 |  |  | 70 | 70 |  | 95 | 100 | 
5 | CO/N=C(/C(=O)OC)c1ccccc1COc1c(C)c(-c2ccc(OC)cc2)nn1C | 100 | 80 | 100 | 30 | 85 | 100 | 55 | 50 | 100 |  | 15
6 | CO/N=C(/C(=O)OC)c1ccccc1COc1cc(-c2ccc(OC)cc2)nn1C | 100 |  | 0 |  | 10 | 100 | 50 | 0 | 98 |  | 
7 | CNC(=O)/C(=N/OC)c1ccccc1COc1cc(-c2ccc(C)cc2C)nn1C | 100 | 50 | 100 | 30 | 100 | 100 | 100 | 100 | 100 |  | 70
8 | CO/N=C(/C(=O)OC)c1ccccc1COc1c(C)c(-c2ccc(OCC(F)(F)F)cc2)nn1C | 50 | 80 | 100 | 15 | 70 | 100 | 0 |  | 80 |  | 
9 | CNC(=O)/C(=N/OC)c1ccccc1COc1c(C)c(-c2ccc(C)c(C)c2)nn1C | 100 | 80 | 100 | 55 | 100 | 100 | 100 | 100 | 100 |  | 40
10 | CO/N=C(/C(=O)OC)c1ccccc1COc1c(C)c(-c2ccc(C)cc2C)nn1C | 100 | 80 | 100 | 75 | 100 | 100 | 100 | 100 | 100 |  | 98
11 | CNC(=O)/C(=N/OC)c1ccccc1COc1cc(-c2ccc(OC)cc2)nn1C | 100 | 80 | 100 |  | 0 | 100 | 30 | 0 | 98 |  | 
12 | CO/N=C(/C(=O)OC)c1ccccc1COc1cc(-c2ccc(C(C)(C)C)cc2)nn1C | 100 | 80 | 100 |  |  | 0 | 0 | 60 | 95 |  | 
13 | CO/N=C(/C(=O)OC)c1ccccc1COc1c(C)c(-c2ccc(C(C)(C)C)cc2)nn1C | 0 |  | 50 |  |  | 70 |  |  | 40 |  | 
14 | CO/N=C(/C(=O)OC)c1ccccc1COc1c(C)c(-c2ccc(Cl)cc2)nn1C | 100 |  | 50 | 98 | 100 | 100 | 100 | 100 | 100 |  | 100
15 | CNC(=O)/C(=N/OC)c1ccccc1COc1c(C)c(-c2ccc(C(C)(C)C)cc2)nn1C | 100 | 100 | 100 | 0 | 0 | 100 | 20 | 40 | 95 |  | 
16 | CCc1ccc(-c2nn(C)c(OCc3ccccc3/C(=N\OC)C(=O)NC)c2C)cc1 | 100 | 0 | 100 | 90 | 100 | 100 |  | 80 | 50 |  | 
17 | CNC(=O)/C(=N/OC)c1ccccc1COc1c(C)c(-c2ccc(OCC(F)(F)F)cc2)nn1C | 100 | 50 | 80 | 40 | 100 | 100 | 80 | 50 | 100 |  | 30
18 | CO/N=C(/C(=O)OC)c1ccccc1COc1c(C)c(-c2ccc(C)c(C)c2)nn1C | 100 | 80 | 100 | 60 | 100 | 100 | 75 | 100 | 100 |  | 70
19 | CNC(=O)/C(=N/OC)c1ccccc1COc1c(C)c(-c2ccc(C)cc2C)nn1C | 100 | 50 | 100 | 65 | 100 | 100 | 100 | 100 | 100 |  | 100
20 | CNC(=O)/C(=N/OC)c1ccccc1COc1cc(-c2ccccc2)nn1C |  |  | 0 |  |  | 50 | 100 |  | 100 |  | 70
21 | CO/C=C(/C(=O)OC)c1ccccc1Oc1cc(Oc2ccccc2C#N)ncn1 [AZOXYSTROBIN] |  |  | 100 | 60 | 100 | 100 | 100 |  | 100 |  | 95
22 | CO/N=C(/C(=O)OC)c1ccccc1COc1cc(-c2ccccc2OC)nn1C | 0 | 50 | 100 | 40 | 90 | 100 |  |  | 50 |  | 
23 | CO/N=C(/C(=O)OC)c1ccccc1COc1cc(-c2ccccc2Cl)nn1C | 100 | 0 | 100 | 45 | 75 | 100 | 30 | 0 | 80 |  | 
24 | CCc1ccc(-c2nn(C)c(OCc3ccccc3/C(=N\OC)C(=O)OC)c2C)cc1 | 100 |  | 50 | 100 | 100 | 100 | 70 | 80 | 98 |  | 50
25 | CNC(=O)/C(=N/OC)c1ccccc1COc1c(C)c(-c2ccc(C)cc2)nn1C | 100 |  | 0 | 40 | 95 | 100 |  | 100 | 65 |  | 
26 | CO/N=C(/C(=O)OC)c1ccccc1COc1ccccc1C [KRESOXIM-METHYL] | 100 |  | 100 | 100 | 100 | 100 | 35 |  |  |  | 0
27 | CO/N=C(/C(=O)OC)c1ccccc1COc1c(C)c(-c2ccc(C)cc2)nn1C | 100 |  | 50 | 100 | 100 | 100 | 60 | 100 | 95 |  | 
28 | CNC(=O)/C(=N/OC)c1ccccc1COc1c(C)c(-c2ccc(Cl)cc2)nn1C | 100 |  | 0 | 85 | 100 | 100 | 40 |  | 80 |  | 
